“And” between values parts separate entries of the source, which are not always exact repeats. Identical values can stand only once. Like-named read-outs stand apart in the source and are kept apart here. Each block holds one compound with its values, some of them ahead of it.
Tests used:
Assay in all cases: Synergy test (MIC) in Ringer's Solution
Assay type in all cases: cell-based
[1] = test system: Pseudomonas aeruginosa; conditions: 30° C., about 10^5 microbes per ml; for MIC: Pseudomonas aeruginosa
Protocol: (§1) Synergy tests were conducted using microbiological standard methods. Ringer's Solution (Merck, VWR) was used for testing bacteria, yeast and mould species. In jars 100 ml aliquots of sterile Ringer Solution are dosed with the preservatives and a known inoculum of the single test species is added. A control sample containing no preservative is also used to ascertain the biocide effect on the inoculum. The prepared jars were incubated at 30° C. Aliquots are streaked out at regular intervals on specific nutrient agar so that an estimate of kill time can be determined at the same time as effective concentration. TSA (tryptic soy agar) was used for bacteria; MEA (malt extract agar) was used for yeast and moulds. The plates were visually evaluated for microbial growth to determine the MIC after various incubation times at 30° C. The synergy of the combinations of the present invention was determined against four bacteria, Pseudomonas aeruginosa, Escherichia coli, Proteus Mirabilis, and Staphylococcus aureus, a yeast, Candida albicans and two moulds Trichoderma viride and Aspergillus niger. The single micro-organisms were used at a concentration of about 10^5 microbes per ml. these micro-organisms are standard reference organisms and representative of natural contaminants in many consumer and industrial applications. […] In each test first component (A) was MIT and the second component was phenylethylalcohol (B).

[2] = test system: Proteus Mirabilis; conditions: 30° C., about 10^5 microbes per ml; for MIC: Proteus mirabilis
Protocol: as §1

[3] = test system: Staphylococcus aureus; conditions: 30° C., about 10^5 microbes per ml; for MIC: Staphylococcus aureus
Protocol: as §1

[4] = test system: Trichoderma viride; conditions: 30° C., about 10^5 microbes per ml; for MIC: Trichoderma viride
Protocol: as §1

[5] = test system: Candida albicans; conditions: 30° C., about 10^5 microbes per ml; for MIC: Candida albicans
Protocol: as §1

[6] = test system: Escherichia coli; conditions: 30° C., about 10^5 microbes per ml; for MIC: Escherichia coli
Protocol: as §1

[7] = test system: Aspergillus niger; conditions: 30° C., about 10^5 microbes per ml; for MIC: Aspergillus niger
Protocol: as §1

[8] = phenylethylalcohol alone, read-out: QB, ppm phenylethylalcohol acting alone, which produced an end point (MIC)
[9] = MIT alone, Test 1 single, Test 2.1-2.3 parallel samples
[10] = MIT alone, Test 1 single, Test 2.1-2.3 parallel samples, read-out: QA, ppm MIT acting alone, which produced an end point (MIC)

- MIC [1, 8]: 2000 µg/mL
- QB, ppm phenylethylalcohol acting alone, which produced an end point (MIC) ([1]; phenylethylalcohol alone): 2500 ppm
- MIC [2, 8]: 2000 µg/mL
- MIC [3, 8]: 2000 µg/mL
- QB, ppm phenylethylalcohol acting alone, which produced an end point (MIC) ([3]; phenylethylalcohol alone): 1500 ppm
- MIC [4, 8]: 2000 µg/mL
- QB, ppm phenylethylalcohol acting alone, which produced an end point (MIC) ([4]; phenylethylalcohol alone): 3000 ppm
- MIC [5, 8]: 2000 µg/mL
- QB, ppm phenylethylalcohol acting alone, which produced an end point (MIC) ([5]; phenylethylalcohol alone): 2500 ppm and 1500 ppm
- MIC [6, 8]: 2500 µg/mL
- QB, ppm phenylethylalcohol acting alone, which produced an end point (MIC) ([6]; phenylethylalcohol alone): 2000 ppm
- MIC [7, 8]: 1500 µg/mL
- QB, ppm phenylethylalcohol acting alone, which produced an end point (MIC) ([7]; phenylethylalcohol alone): 2000 ppm
SMILES: OCCc1ccccc1 [phenylethylalcohol]

SMILES: Cn1sccc1=O [MIT, 2-methyl-3-isothiazolone]
- QA, ppm MIT acting alone, which produced an end point (MIC) [1, 9]: 25 ppm
- MIC [1, 10]: 50 µg/mL
- QA, ppm MIT acting alone, which produced an end point (MIC) [2, 9]: 25 ppm
- MIC [2, 10]: 50 µg/mL
- QA, ppm MIT acting alone, which produced an end point (MIC) [3, 9]: 50 ppm
- MIC [3, 10]: 75 µg/mL
- QA, ppm MIT acting alone, which produced an end point (MIC) [4, 9]: 50 ppm
- MIC [4, 10]: 75 µg/mL
- MIC [5, 10]: 50 µg/mL
- MIC [6, 10]: 25 µg/mL
- QA, ppm MIT acting alone, which produced an end point (MIC) [6, 9]: 50 ppm
- MIC [7, 10]: 50 µg/mL
